Reference: patent US8044069B2, “Compounds as calcium channel blockers” (Abbott Laboratories, priority 2008, dated 2011)
pIC50: −log10 of the molar value.

Molecular target: human Cav2.2 (Homo sapiens, UniProt Q00975)
Experiment: Assessment of calcium channel activity using FLIPR (Ca2+ influx in IMR32 cells)
Assay type: cell-based
Details: IMR32 cells endogenously expressing human Cav2.2; 60 minute pre-incubation; 2 μM nifedipine; depolarized with 80 mM KCl, 5 mM CaCl2
Outline: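 FLIPR measured Ca2+ influx triggered by 80 mM KCl depolarization together with a step to 5 mM external CaCl2. Percent inhibition relative to uninhibited activity was fitted sigmoidally for IC50.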

human Cav2.2, sequence (Q00975 whole entry): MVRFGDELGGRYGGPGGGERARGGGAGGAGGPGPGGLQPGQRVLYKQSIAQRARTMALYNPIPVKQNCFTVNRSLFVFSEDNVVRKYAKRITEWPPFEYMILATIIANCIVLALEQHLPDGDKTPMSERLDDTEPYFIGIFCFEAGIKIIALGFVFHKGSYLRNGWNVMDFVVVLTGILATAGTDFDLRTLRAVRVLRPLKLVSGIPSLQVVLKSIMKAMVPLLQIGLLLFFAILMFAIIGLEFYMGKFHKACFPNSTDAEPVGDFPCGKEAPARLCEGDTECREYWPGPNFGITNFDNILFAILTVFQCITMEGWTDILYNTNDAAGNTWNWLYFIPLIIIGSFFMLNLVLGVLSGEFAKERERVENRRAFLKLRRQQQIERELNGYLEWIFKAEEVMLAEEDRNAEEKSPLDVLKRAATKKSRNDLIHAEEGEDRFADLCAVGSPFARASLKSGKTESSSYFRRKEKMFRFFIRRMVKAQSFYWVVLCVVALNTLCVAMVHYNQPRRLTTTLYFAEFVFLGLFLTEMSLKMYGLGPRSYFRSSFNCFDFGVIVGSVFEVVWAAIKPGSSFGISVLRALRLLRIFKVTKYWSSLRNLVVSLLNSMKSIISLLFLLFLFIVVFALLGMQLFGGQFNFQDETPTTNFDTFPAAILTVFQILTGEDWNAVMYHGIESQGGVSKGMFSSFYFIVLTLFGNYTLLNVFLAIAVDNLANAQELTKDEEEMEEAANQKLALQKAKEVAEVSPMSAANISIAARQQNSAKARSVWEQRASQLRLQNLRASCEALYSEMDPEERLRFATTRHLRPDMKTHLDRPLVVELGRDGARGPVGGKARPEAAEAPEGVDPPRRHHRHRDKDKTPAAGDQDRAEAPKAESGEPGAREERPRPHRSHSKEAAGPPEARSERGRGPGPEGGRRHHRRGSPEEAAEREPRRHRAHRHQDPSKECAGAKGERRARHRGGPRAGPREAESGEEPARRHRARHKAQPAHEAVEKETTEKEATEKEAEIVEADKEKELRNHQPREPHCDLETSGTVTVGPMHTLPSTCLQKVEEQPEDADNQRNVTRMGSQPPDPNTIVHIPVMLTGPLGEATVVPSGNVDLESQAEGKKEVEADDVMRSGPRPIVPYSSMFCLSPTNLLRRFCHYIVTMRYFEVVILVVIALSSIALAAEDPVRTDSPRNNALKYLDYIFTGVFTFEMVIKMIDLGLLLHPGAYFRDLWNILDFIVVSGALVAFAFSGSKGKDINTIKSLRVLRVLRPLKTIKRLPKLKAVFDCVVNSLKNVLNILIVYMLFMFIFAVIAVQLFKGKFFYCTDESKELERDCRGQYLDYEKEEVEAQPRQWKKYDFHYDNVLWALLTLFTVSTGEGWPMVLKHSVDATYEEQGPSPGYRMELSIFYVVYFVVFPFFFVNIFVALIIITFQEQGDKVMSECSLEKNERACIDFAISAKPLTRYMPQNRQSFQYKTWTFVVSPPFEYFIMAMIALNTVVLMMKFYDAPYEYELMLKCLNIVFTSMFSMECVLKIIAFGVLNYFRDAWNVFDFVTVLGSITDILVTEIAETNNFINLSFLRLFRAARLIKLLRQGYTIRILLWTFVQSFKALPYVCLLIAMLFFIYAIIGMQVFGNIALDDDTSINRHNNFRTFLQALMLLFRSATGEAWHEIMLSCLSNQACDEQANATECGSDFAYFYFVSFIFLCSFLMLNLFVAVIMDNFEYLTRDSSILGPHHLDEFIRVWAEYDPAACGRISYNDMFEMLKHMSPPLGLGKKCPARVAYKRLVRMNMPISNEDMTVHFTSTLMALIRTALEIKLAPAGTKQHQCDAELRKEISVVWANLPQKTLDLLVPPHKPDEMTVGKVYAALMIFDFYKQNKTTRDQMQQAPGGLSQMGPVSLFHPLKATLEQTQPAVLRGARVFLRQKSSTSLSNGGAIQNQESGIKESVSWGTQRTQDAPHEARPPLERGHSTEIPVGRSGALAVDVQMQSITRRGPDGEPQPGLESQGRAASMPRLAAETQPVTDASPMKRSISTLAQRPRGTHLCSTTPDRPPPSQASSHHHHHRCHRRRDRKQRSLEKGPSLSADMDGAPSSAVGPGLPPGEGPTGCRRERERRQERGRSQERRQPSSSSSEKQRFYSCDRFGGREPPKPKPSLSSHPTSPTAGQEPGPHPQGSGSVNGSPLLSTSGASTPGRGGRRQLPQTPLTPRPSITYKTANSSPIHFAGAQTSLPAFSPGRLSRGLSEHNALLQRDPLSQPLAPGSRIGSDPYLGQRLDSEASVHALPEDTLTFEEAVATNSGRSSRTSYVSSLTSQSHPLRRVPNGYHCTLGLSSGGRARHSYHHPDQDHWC
human Cav2.2, sequence (P54289 25-951 partner limits assumed): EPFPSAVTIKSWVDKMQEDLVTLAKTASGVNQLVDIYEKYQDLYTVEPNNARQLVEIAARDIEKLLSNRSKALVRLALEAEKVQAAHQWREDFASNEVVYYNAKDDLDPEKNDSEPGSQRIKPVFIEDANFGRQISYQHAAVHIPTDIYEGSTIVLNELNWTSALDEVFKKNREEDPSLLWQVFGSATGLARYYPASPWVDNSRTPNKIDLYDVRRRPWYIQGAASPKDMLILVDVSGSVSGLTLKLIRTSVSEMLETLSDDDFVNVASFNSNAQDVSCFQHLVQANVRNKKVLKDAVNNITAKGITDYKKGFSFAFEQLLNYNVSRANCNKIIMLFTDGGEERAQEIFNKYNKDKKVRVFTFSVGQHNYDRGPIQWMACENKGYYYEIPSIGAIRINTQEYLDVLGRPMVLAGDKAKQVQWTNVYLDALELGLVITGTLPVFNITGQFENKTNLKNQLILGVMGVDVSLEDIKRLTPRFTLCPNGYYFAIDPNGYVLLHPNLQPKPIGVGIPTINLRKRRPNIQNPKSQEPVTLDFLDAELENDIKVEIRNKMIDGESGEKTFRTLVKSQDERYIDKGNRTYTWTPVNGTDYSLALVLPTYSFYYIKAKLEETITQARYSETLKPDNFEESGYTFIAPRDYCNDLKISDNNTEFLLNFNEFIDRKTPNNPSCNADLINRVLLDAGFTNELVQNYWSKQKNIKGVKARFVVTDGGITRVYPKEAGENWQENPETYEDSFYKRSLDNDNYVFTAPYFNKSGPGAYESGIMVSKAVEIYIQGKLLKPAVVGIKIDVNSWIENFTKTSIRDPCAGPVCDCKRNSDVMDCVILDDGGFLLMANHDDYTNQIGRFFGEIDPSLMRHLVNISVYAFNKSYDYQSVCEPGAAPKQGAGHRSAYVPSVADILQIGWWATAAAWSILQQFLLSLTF
human Cav2.2, sequence (P54289 952-1103 partner limits assumed): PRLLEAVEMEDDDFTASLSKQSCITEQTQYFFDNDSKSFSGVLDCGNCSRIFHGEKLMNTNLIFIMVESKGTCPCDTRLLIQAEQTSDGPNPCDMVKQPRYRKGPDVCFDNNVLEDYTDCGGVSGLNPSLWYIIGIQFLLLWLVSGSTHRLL
human Cav2.2, sequence (P54284 whole entry partner): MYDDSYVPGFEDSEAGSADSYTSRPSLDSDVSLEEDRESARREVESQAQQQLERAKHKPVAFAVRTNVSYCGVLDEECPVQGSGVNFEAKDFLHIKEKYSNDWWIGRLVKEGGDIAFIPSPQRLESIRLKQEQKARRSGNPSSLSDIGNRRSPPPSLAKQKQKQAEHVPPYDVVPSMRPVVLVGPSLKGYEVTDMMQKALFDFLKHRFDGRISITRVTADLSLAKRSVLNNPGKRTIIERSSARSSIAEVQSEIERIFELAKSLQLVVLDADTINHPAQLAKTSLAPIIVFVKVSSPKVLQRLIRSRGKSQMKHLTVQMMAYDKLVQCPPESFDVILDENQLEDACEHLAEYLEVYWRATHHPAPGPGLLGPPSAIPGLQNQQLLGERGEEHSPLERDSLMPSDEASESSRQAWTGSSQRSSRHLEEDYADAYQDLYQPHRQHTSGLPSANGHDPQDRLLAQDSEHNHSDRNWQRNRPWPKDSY

Row | SMILES | pIC50
1 | O=C(CN1CCC(c2ccc(F)cc2)(c2ccc(F)cc2)C1=O)Nc1cccc(C(F)(F)F)n1 [Example 226, 2-[3,3-bis(4-fluorophenyl)-2-oxopyrrolidin-1-yl]-N-[6-(trifluoromethyl)pyridin-2-yl]acetamide] | 5.61
2 | O=C1N(Cc2nc(-c3cnccn3)no2)CCC1(c1ccccc1)c1ccccc1 [Example 230, 3,3-diphenyl-1-[(3-pyrazin-2-yl-1,2,4-oxadiazol-5-yl)methyl]pyrrolidin-2-one] | 5.05
3 | COc1ccc(C2(c3ccc(OC)cc3)CCCN(CCN(C)CCCOc3cc(OC)cc(OC)c3)C2=O)cc1 [Example 115, 1-{2-[[3-(3,5-dimethoxyphenoxy)propyl](methyl)amino]ethyl}-3,3-bis(4-methoxyphenyl)piperidin-2-one] | 5.51
4 | O=C1N(Cc2nc(-c3ccc(F)cc3)no2)CCCC1(c1ccccc1)c1ccccc1 [Example 100, 1-{[3-(4-fluorophenyl)-1,2,4-oxadiazol-5-yl]methyl}-3,3-diphenylpiperidin-2-one] | 5.28
5 | O=C1N(Cc2nc(-c3ccc(C(F)(F)F)nc3)no2)CCC1(c1ccccc1)c1ccccc1 [Example 211, 3,3-diphenyl-1-({3-[6-(trifluoromethyl)pyridin-3-yl]-1,2,4-oxadiazol-5-yl}methyl)pyrrolidin-2-one] | 5.50
6 | O=C(CN1CCC(c2ccccc2)(c2ccccc2)C1=O)N1CCN(Cc2ccc(F)cc2)CC1 [Example 38, 1-{2-[4-(4-fluorobenzyl)piperazin-1-yl]-2-oxoethyl}-3,3-diphenylpyrrolidin-2-one] | 5.65
7 | O=C(CN1CCC(c2ccc(C(F)(F)F)cc2)C1=O)N1Cc2ccc(C(F)(F)F)cc2C1 (stereo not shown) [Example 267, 1-{2-oxo-2-[5-(trifluoromethyl)-1,3-dihydro-2H-isoindol-2-yl]ethyl}-3-[4-(trifluoromethyl)phenyl]pyrrolidin-2-one] | 5.13
8 | CC1(NC(=O)CN2CCC(c3ccccc3)(c3ccccc3)C2=O)CCN(Cc2ccccc2)C1 (stereo not shown) [Example 40, N-(1-benzyl-3-methylpyrrolidin-3-yl)-2-(2-oxo-3,3-diphenylpyrrolidin-1-yl)acetamide] | 5.68
9 | O=C(CN1CCC(c2ccccc2)(c2ccccc2)C1=O)N1CCc2ccccc2C1 [Example 19, 1-[2-(3,4-dihydroisoquinolin-2(1H)-yl)-2-oxoethyl]-3,3-diphenylpyrrolidin-2-one] | 5.48
10 | O=C(CN1CCC(c2ccccc2)(c2ccccc2)C1=O)NC(c1ccccc1)C1CC1 (stereo not shown) [Example 9, N-[cyclopropyl(phenyl)methyl]-2-(2-oxo-3,3-diphenylpyrrolidin-1-yl)acetamide] | 5.68
11 | O=C(CN1CCCC(c2ccccc2)(c2ccccc2)C1=O)N1CCC(c2ccc(C(F)(F)F)cc2)CC1 [Example 245, 1-(2-oxo-2-{4-[4-(trifluoromethyl)phenyl]piperidin-1-yl}ethyl)-3,3-diphenylpiperidin-2-one] | 5.35
12 | O=C(CN1CCCC(c2ccccc2)(c2ccccc2)C1=O)NC1CCOc2ccc(F)cc21 (stereo not shown) [Example 75, N-(6-fluoro-3,4-dihydro-2H-chromen-4-yl)-2-(2-oxo-3,3-diphenylpiperidin-1-yl)acetamide] | 5.34
13 | O=C(CN1CCCC(c2ccccc2)(c2ccccc2)C1=O)N1CCC(Oc2ccc(F)c(F)c2)CC1 [Example 160, 1-{2-[4-(3,4-difluorophenoxy)piperidin-1-yl]-2-oxoethyl}-3,3-diphenylpiperidin-2-one] | 5.52
14 | COc1ccc(C2(c3ccc(OC)cc3)CCN(CCNC(=O)c3ccccc3)C2=O)cc1 [Example 112, N-{2-[3,3-bis(4-methoxyphenyl)-2-oxopyrrolidin-1-yl]ethyl}benzamide] | 5.00
15 | CC(C)(C)c1ccc(-c2noc(CN3CCC(c4ccccc4)(c4ccccc4)C3=O)n2)cc1 [Example 202, 1-{[3-(4-tert-butylphenyl)-1,2,4-oxadiazol-5-yl]methyl}-3,3-diphenylpyrrolidin-2-one] | 4.98
16 | O=C(CN1CCCC(c2ccccc2)(c2ccccc2)C1=O)N1CCC(Oc2ccc(Cl)cc2)CC1 [Example 158, 1-{2-[4-(4-chlorophenoxy)piperidin-1-yl]-2-oxoethyl}-3,3-diphenylpiperidin-2-one] | 5.39
17 | O=C(CN1CCC(c2ccccc2)(c2ccccc2)C1=O)N1CCN(c2ccc(F)cc2)CC1 [Example 54, 1-{2-[4-(4-fluorophenyl)piperazin-1-yl]-2-oxoethyl}-3,3-diphenylpyrrolidin-2-one] | 5.59
18 | O=C(CN1CCC(c2ccccc2)(c2ccccc2)C1=O)N1Cc2ccc(F)cc2C1 [Example 26, 1-[2-(5-fluoro-1,3-dihydro-2H-isoindol-2-yl)-2-oxoethyl]-3,3-diphenylpyrrolidin-2-one] | 5.31
19 | O=C1N(CCCc2nc(-c3ccc(C(F)(F)F)cc3)no2)CCC1(c1ccccc1)c1ccccc1 [Example 155, 3,3-diphenyl-1-(3-{3-[4-(trifluoromethyl)phenyl]-1,2,4-oxadiazol-5-yl}propyl)pyrrolidin-2-one] | 5.36
20 | O=C(CN1CCC(c2ccccc2)(c2ccccc2)C1=O)Nc1ccc(Cl)cn1 [Example 5, N-(5-chloropyridin-2-yl)-2-(2-oxo-3,3-diphenylpyrrolidin-1-yl)acetamide] | 5.35
21 | O=C(CN1CCC(c2ccc(C(F)(F)F)cc2)C1=O)N1Cc2ccc(F)cc2C1 (stereo not shown) [Example 266, 1-[2-(5-fluoro-1,3-dihydro-2H-isoindol-2-yl)-2-oxoethyl]-3-[4-(trifluoromethyl)phenyl]pyrrolidin-2-one] | 4.99
22 | COc1ccc(C2(c3ccc(OC)cc3)CCCN(CCCN3CCN(Cc4cc(OC)cc(OC)c4)CC3)C2=O)cc1 [Example 131, 1-{3-[4-(3,5-dimethoxybenzyl)piperazin-1-yl]propyl}-3,3-bis(4-methoxyphenyl)piperidin-2-one] | 5.64
23 | O=C1N(S(=O)(=O)c2cccc(C(F)(F)F)c2)CCC1(c1ccc(F)cc1)c1ccc(F)cc1 [Example 145, 3,3-bis(4-fluorophenyl)-1-{[3-(trifluoromethyl)phenyl]sulfonyl}pyrrolidin-2-one] | 5.02

Molecules with a higher pIC50, results first:

Row | pIC50 | SMILES
24 | 5.82 | CN(CCCN1CCC(c2ccc(F)cc2)(c2ccc(F)cc2)C1=O)C1Cc2ccccc2C1 [Example 114, 1-{3-[2,3-dihydro-1H-inden-2-yl(methyl)amino]propyl}-3,3-bis(4-fluorophenyl)pyrrolidin-2-one]
25 | 5.88 | O=C(CN1CCC(c2ccc(F)cc2)(c2ccc(F)cc2)C1=O)N1CCC(c2ccccc2)(c2ccccc2)C1 [Example 61, 1-[2-(3,3-diphenylpyrrolidin-1-yl)-2-oxoethyl]-3,3-bis(4-fluorophenyl)pyrrolidin-2-one]
26 | 6.02 | O=C(CN1CCCC(c2ccccc2)(c2ccccc2)C1=O)NC1CCN(Cc2ccc(F)c(C(F)(F)F)c2)CC1 [Example 183, N-{1-[4-fluoro-3-(trifluoromethyl)benzyl]piperidin-4-yl}-2-(2-oxo-3,3-diphenylpiperidin-1-yl)acetamide]
27 | 6.15 | O=C(CN1CCC(c2ccccc2)(c2ccccc2)C1=O)N1CCC(C(O)(c2ccc(F)cc2)c2ccc(F)cc2)CC1 [Example 32, 1-(2-{4-[bis(4-fluorophenyl)(hydroxy)methyl]piperidin-1-yl}-2-oxoethyl)-3,3-diphenylpyrrolidin-2-one]
28 | 5.83 | O=C(CN1CCC(c2ccccc2)(c2ccccc2)C1=O)NCc1ccc(C(F)(F)F)cc1 [Example 8, 2-(2-oxo-3,3-diphenylpyrrolidin-1-yl)-N-[4-(trifluoromethyl)benzyl]acetamide]
29 | 5.82 | COc1ccc(C2(c3ccc(OC)cc3)CCCN(CCCN(C)Cc3cc(OC)cc(OC)c3)C2=O)cc1 [Example 127, 1-{3-[(3,5-dimethoxybenzyl)(methyl)amino]propyl}-3,3-bis(4-methoxyphenyl)piperidin-2-one]
30 | 6.34 | O=C(CN1CCC(c2ccccc2)(c2ccccc2)C1=O)N1CCC(c2ccccc2)(c2ccccc2)CC1 [Example 25, 1-[2-(4,4-diphenylpiperidin-1-yl)-2-oxoethyl]-3,3-diphenylpyrrolidin-2-one]
31 | 5.83 | COc1cc(CN2CCN(CCCN3CCC(c4ccc(F)cc4)(c4ccc(F)cc4)C3=O)CC2)cc(OC)c1OC [Example 110, 3,3-bis(4-fluorophenyl)-1-{3-[4-(3,4,5-trimethoxybenzyl)piperazin-1-yl]propyl}pyrrolidin-2-one]
32 | 5.85 | COc1ccccc1N1CCN(CCCN2CCCC(c3ccc(F)cc3)(c3ccc(F)cc3)C2=O)CC1 [Example 138, 3,3-bis(4-fluorophenyl)-1-{3-[4-(2-methoxyphenyl)piperazin-1-yl]propyl}piperidin-2-one]
33 | 5.70 | COc1ccc(C2(c3ccc(OC)cc3)CCCN(CCCN(C)CCCOc3cc(OC)cc(OC)c3)C2=O)cc1 [Example 116, 1-{3-[[3-(3,5-dimethoxyphenoxy)propyl](methyl)amino]propyl}-3,3-bis(4-methoxyphenyl)piperidin-2-one]
34 | 5.73 | COCc1cc(/C=C/c2ccccc2OCC(O)CN(C)CCN2CCC(c3ccc(F)cc3)(c3ccc(F)cc3)C2=O)on1 (stereo not shown) [Example 107, 3,3-bis(4-fluorophenyl)-1-{2-[[2-hydroxy-3-(2-{(E)-2-[3-(methoxymethyl)isoxazol-5-yl]vinyl}phenoxy)propyl](methyl)amino]ethyl}pyrrolidin-2-one]
35 | 6.09 | O=C(CN1CCC(c2ccccc2)(c2ccccc2)C1=O)N1CCCC(c2ccccc2)(c2ccccc2)C1 [Example 24, 1-[2-(3,3-diphenylpiperidin-1-yl)-2-oxoethyl]-3,3-diphenylpyrrolidin-2-one]
36 | 5.78 | COc1cc(CN2CCN(CCN3CCC(c4ccc(F)cc4)(c4ccc(F)cc4)C3=O)CC2)cc(OC)c1 [Example 63, 1-{2-[4-(3,5-dimethoxybenzyl)piperazin-1-yl]ethyl}-3,3-bis(4-fluorophenyl)pyrrolidin-2-one]
37 | 5.80 | O=C1N(Cc2nc(CCc3ccc(Cl)cc3)no2)CCCC1(c1ccccc1)c1ccccc1 [Example 213, 1-({3-[2-(4-chlorophenyl)ethyl]-1,2,4-oxadiazol-5-yl}methyl)-3,3-diphenylpiperidin-2-one]
